This note sets out measurements from patent US10568925B2, “Extracts of Curcuma amada and uses thereof” (DHARMA BIOMEDICAL, LLC, priority 2015, dated 2020).

The test system of series [1] is U-87MG human glioblastoma cell line. Briefly: MTT cytotoxicity in U-87MG glioblastoma cells. The conditions noted are these: 72 hours. Type of series: cell-based. As for the experimental part:
Human glioblastoma cell line (U-87MG) was purchased from American Type Culture Collection, Manassas, Va. and the cells were grown in RPMI medium supplemented with 10% fetal bovine serum (FBS) and antibiotics in a humidified 5% CO2 incubator maintained at 37° C. The normal mouse embryonic hypothalamus cell line (mHypoE-N1) was purchased from CELLutions Biosystems, Inc, Burlington, Ontario, Canada and was grown in DMEM, supplemented with 10% FBS and antibiotics in the CO2 incubator.
Glioblastoma (U-87MG) cells were treated with increasing concentrations of CA, temozolomide, etoposide or their combination for 72 hours in 96-well plates. MTT [3-(4,5-Dimethyl thiazol-2-yl)-2,5-diphenyltetrazolium bromide] assay performed with the Cell Proliferation Kit I (Roche Biochemicals, IN) was used to analyze cytotoxicity of individual drugs/extracts and their combinations. The experiments were repeated four times with three replications for each treatment and the IC50, IC75 and IC90 values were calculated (Ramachandran et al. 2010; Ramachandran et al. 2012). The relative cytotoxicity of CA in normal mouse hypothalamus cell line (mHypoE-N1) was also analyzed to compare the toxicity and specificity of CA in normal and brain tumor cells.
Mean inhibitory concentrations (ICs) and standard deviation estimates were calculated using Microsoft Excel software using data from three separate experiments. The fraction of surviving cells at each concentration of drugs/combinations was used for the analysis of synergism/additiveness/antagonism between drugs/extracts by the CompuSyn software (ComboSyn, Inc., Paramus, N.J.).

Series [2] relates to alveolar (SJRH30) rhabdomyosarcoma cell line. Briefly: MTT cytotoxicity in alveolar rhabdomyosarcoma cells. Type of series: cell-based, human. The note with it: for IC50 / IC90: Homo sapiens. The protocol:
(§1) Both aRMS (SJRH30) and eRMS (RD) cell lines were purchased from American Type Culture Collection, Manassas, Va. SJRH30 and RD cells were grown in Rosewell Park Memorial Institute 1640 (RPMI 1640) and Dulbecco's Modified Eagle's medium (DMEM), respectively, supplemented with 10% FBS and antibiotics in a 5% CO2 incubator.
(§2) Rhabdomyosarcoma cells were treated with increasing concentrations of drugs and/or extracts for 72 hours in 96-well plates. MTT assay performed with the Cell Proliferation kit I (Roche Biochemicals, IN) was used to analyze cytotoxicity of individual drugs, extracts and their combinations (Ramachandran et al. 2012).
(§3) Mean inhibitory concentrations (ICs) and standard deviation estimates were calculated using Microsoft Excel software. The fraction of surviving cells at each concentration of drugs/combinations was used for the analysis of synergism/additiveness/antagonism between drugs/extracts by the CompuSyn software (ComboSyn, Inc., Paramus, N.J.). Synergism was evaluated by the Combination Index (CI) method of Chou and Talalay (1983) which is based on the median-effect principle. The CIs were calculated by the Chou-Talalay equations for multiple drug effects which take into account both potency (IC values) and shape (slope, m) of dose-effect curve (Ramachandran et al. 2010).

Another series concerns SJRH30 cell line. The series is described as follows: RT-PCR gene expression, SJRH30. Type of series: cell-based, human. The note with it: SJRH30, 72 h. The protocol:
(§4) FIGS. 20A-20B: Gene expression analysis of apoptotic genes (p53, Bcl-2, Bax and Bak) by RT-PCR in eRMS RD (FIG. 20A) and aRMS SJRH30 (FIG. 20B) cells treated with VBL, CP, CA and their combinations. Total RNA was extracted from cells treated with drugs and their combinations for 72 h and RT-PCR assay performed with 5 μg of RNA using gene specific primers. The house keeping gene GAPDH is also amplified as control.
(§5) mRNA expression of apoptosis-associated genes (Bax, Bcl-2, Bak and p53) and inflammation-associated genes (Cox-2, NF-κB and STATS) were analyzed by reverse transcriptase-polymerase chain reaction (Ramachandran et al. 2012). The expression of a house keeping gene, Glyceraldehyde 3-phosphate dehydrogenase (GAPDH) was used as a control. The relative expression of genes was quantified using gel pictures by the UNSCAN-IT GEL′ software (Silk Scientific, Inc., Orem, Utah). Since the ratios of Bax/Bcl-2, Bak/Bcl-2 and Bax/Bak expression were very much associated with the fate of cells undergoing apoptosis, these estimates were calculated and plotted against drug concentrations (Ramachandran et al. 2012).

In series [3] the test system is embryonal (RD) rhabdomyosarcoma cell line. Briefly: MTT cytotoxicity in embryonal rhabdomyosarcoma cells. Type of series: cell-based, human. The conditions noted are these: for IC50 / IC90: Homo sapiens, Rhabdomyosarcoma cell. As for the experimental part:
as §1, §2, §3

Another series has as its system RD cell line. Briefly: RT-PCR gene expression, RD. The conditions noted are these: 72 h. Type of series: cell-based, human. The protocol:
as §4, §5

Series [4] deals with U-87MG nude mice xenografts. The series is described as follows: Glioblastoma xenograft study. Type of series: in vivo. The conditions noted are these: vs olive oil control; IR 50 mg/kg intraperitoneally, CA (50/mg) gavage; p<0.05. The protocol: FIG. 16: Inhibition of tumor growth rate in U-87MG xenografts treated with olive oil (control), irinotecan (IR), CA, and IR+CA in combination. Xenografts (n=15/group) were administered intraperitoneally with olive oil (control) or IR (50 mg/kg), whereas CA (50/mg) was given gavage (introduction directly to the stomach). Tumor measurements are recorded twice per week and mean±SD estimates of tumor growth rate are plotted against days after treatment (*p<0.05; **p<0.01, ***p<0.001 as compared to control).
FIG. 17: Kaplan-Meier survival curve analysis of glioblastoma (U-87MG) nude mice xenografts treated with olive oil control, IR, CA, and IR+CA. The difference between treatment groups are significant (*p<0.05).

Series [5] has as its system aRMS (SJRH30) nude mice xenografts. Briefly: Rhabdomyosarcoma xenograft study. It is filed as in vivo. As for the experimental part:
Male athymic nude (nu/nu) mice of the NCrNUstrain (4 weeks old weighing 18-22 g) were purchased from Taconic Labs, German Town, N.Y. Tissue cultured SJRH30 aRMS cells (10^7 cells/site) in 0.1 ml of Hank's balanced salt solution were injected subcutaneously into the left and right flank of the nude mice with a 21-guage needle. When the tumors measured 0.5 cm^3, therapy was started with 20 mice in each group. Treatment groups included control (saline), 2 mg/kg VBL, 10 mg/kg CA and 2 mg/kg VBL+10 mg/kg CA. VBL was dissolved in saline and administered intraperitoneally on alternate days for a total of 10 injections starting on the first day of tumor measurement and treatment. CA was initially dissolved in ethanol and diluted in water so as to make 0.1% alcohol in it and given as drinking water for the entire duration of the study. Tumor size (length×width), body weight and survival data were collected twice a week. Tumor measurements were recorded using a vernier caliper and tumor volume and tumor growth rates were calculated according to the formula described earlier (Ramachandran et al. 2003; 2006). Tumor growth rate data was analyzed by one-way analysis of variance (ANOVA) with Dunnett's multiple comparison test. Survival data was analyzed with Kaplan Meier statistics using Graphpad Prism software and significant differences among treatment groups were calculated.

Where two headings read alike, the source gives them in different places.

Take `COc1cc(/C=C/C(=O)CC(=O)/C=C/c2ccc(O)c(OC)c2)ccc1O` [CUR, curcumin]: the IC75 in series [1] and in series [1] (listed as curcumin) was 51.00 ± 7.07 µg/mL each time. Further, the IC90 is above 200 µg/mL in series [1] and above 200 µg/mL in series [1] (Homo sapiens, read-out: IC90). In addition, the IC50 in series [1] (Homo sapiens) is 37.3 ± 4.04 µg/mL.
As to `O=P1(N(CCCl)CCCl)NCCCO1` (centres unmarked) [Cyclophosphamide (CP), Cyclophosphamide], the cell death in series [2] (200 μg/ml dose, aRMS cells) was 45%. In addition, the IC50 is above 200 µg/mL in series [2] (SJRH30, 72 h) and 172 ± 8.53 µg/mL in series [3] (72 h). Moreover, the IC90 in series [2] (SJRH30, 72 h) is above 200 µg/mL; in series [3] (72 h) it was above 200 µg/mL. The IC75 in series [2] (SJRH30, 72 hours, MTT) was above 200 µg/mL; in series [3] (RD, 72 hours, MTT) it was above 200 µg/mL. Also, the “expression of Bcl-2” value in the series with SJRH30 cell line and with RD cell line was “decrease” in each case. Besides, the “expression of p53, Bax and Bak” value in the series on SJRH30 cell line and in the series with RD cell line was “increase” each time.
As for `COc1cc([C@@H]2c3cc4c(cc3[C@@H](O[C@@H]3O[C@@H]5CO[C@@H](C)O[C@H]5[C@H](O)[C@H]3O)[C@H]3COC(=O)[C@H]23)OCO4)cc(OC)c1O` [ETP, etoposide], in series [1], the IC75 is 127.50 ± 3.53 µg/mL. The IC50 in series [1] (Homo sapiens) stood at 6.5 ± 2.54 µg/mL. Also, the IC90 in series [1] (Homo sapiens, read-out: IC90) was above 200 µg/mL.
As to `CCc1c2c(nc3ccc(OC(=O)N4CCC(N5CCCCC5)CC4)cc13)-c1cc3c(c(=O)n1C2)COC(=O)[C@]3(O)CC` [IR, irinotecan], the tumor growth rate entry in series [4] is “significantly inhibited”.
In the case of `Cn1nnc2c(C(N)=O)ncn2c1=O` [TMZ, temozolomide], the IC75 in series [1] is above 200 µg/mL. The IC50 in series [1] (Homo sapiens) is 176 ± 10.5 µg/mL. In series [1] (Homo sapiens, read-out: IC90), the IC90 was above 200 µg/mL.
Consider `CC[C@]1(O)C[C@@H]2CN(CCc3c([nH]c4ccccc34)[C@@](C(=O)OC)(c3cc4c(cc3OC)N(C)[C@H]3[C@@](O)(C(=O)OC)[C@H](OC(C)=O)[C@]5(CC)C=CCN6CC[C@]43[C@@H]65)C2)C1` [Vinblastine (VBL), Vinblastine], for which the IC50 came out at 0.191 ± 0.01 µg/mL in series [2] (SJRH30, 72 hours, MTT, read-out: IC50) and 0.01 ± 0.002 µg/mL in series [3] (RD, 72 hours, MTT, read-out: IC50). Besides, the IC90 in series [2] (SJRH30, 72 hours, MTT, read-out: IC90) was above 200 µg/mL; in series [3] (RD, 72 hours, MTT, read-out: IC90), above 200 µg/mL. The IC75 turned out to be 36.110 ± 2.970 µg/mL in series [2] (SJRH30, 72 hours, MTT) and 0.200 ± 0.010 µg/mL in series [3] (RD, 72 hours, MTT). Besides, the “weight gain of xenografts / overall weight loss” value in series [5] (mouse, in vivo) was “absence of any overall weight loss”. For the same compound, the tumor growth rate result in series [5] (vs saline control, VBL 2 mg/kg intraperitoneally, CA 10 mg/kg in drinking water, p<0.001 by ANOVA) was “significantly inhibited”. In addition, the “expression of Bcl-2” value in the series on SJRH30 cell line and in the series with RD cell line was “decrease” in each case. Moreover, the “expression of p53, Bax and Bak” value in the series on SJRH30 cell line and in the series on RD cell line was “increase” throughout.

What is called IC75 is the concentration needed for an effect of 75%. Usually IC90 stands for the point of the concentration-response curve where the effect stands at 90%. For orientation: IC50 means the concentration needed to halve the response being measured.
